The source of these data is patent US20110135571A1, “HYBRID NANOPARTICLES AS ANTI-CANCER THERAPEUTIC AGENTS AND DUAL THERAPEUTIC/IMAGING CONTRAST AGENTS” (priority 2008, published 2011).

Experiment [1] concerns MCF-7 cells (breast cancer). Description: MCF-7 Viability Assays. The experiment is classed as cell-based, human. From the text:
(§1) Cell Lines All cell lines were purchased from the Tissue Culture Facility of the UNC Lineberger Comprehensive Cancer Center (Chapel Hill, N.C., United States of America) and cultured as per American Type Culture Collection (ATCC; Manassas, Va., United States of America) recommendations. HT29 cells (ATCC# HTB 38) were propagated in McCoy's 5A (Cellgro, Manassas, Va., United States of America) supplemented with 10% fetal bovine serum and 1% penicillin/streptomycin. MCF-7 cells (ATCC# HTB 22) were propagated in MEM Alpha (Cellgro, Manassas, Va., United States of America) supplemented with 10% fetal bovine serum, 1% penicillin/streptomycin, 1% sodium pyruvate, and 10 μg/mL insulin.
(§2) HT-29 viability assays: Angiogenic human colon cancer (HT-29) cells were grown in 96 well plates at 2000 cells/well to 100 μL total volume. After a 24 hour incubation, the media was replaced with 100 μL of drug solution containing 0.5% DMSO and 0.5% phosphate buffered saline (PBS) in media, with drug concentrations varying as indicated. All concentrations were performed in quadruplicate. Cell viability was measured after 72 hours using CellTiter 96 Aqueous One Solution Assay (Promega Corporation, Madison, Wis., United States of America), according to the manufacturer's protocol.
MCF-7 Viability Assays. As a further control, cell viability assays were also performed using MCF-7 cells (breast cancer). MCF-7 cells were assayed under the same conditions as HT-29, and also at 4000 cells/well and 72 hours. Unlike with HT-29, Pt(IV) drugs are active. […] NCP-1′-b was also tested but at 2000 cells/well.

Experiment [2] concerns Angiogenic human colon cancer (HT-29) cells. Description: HT-29 viability assays. As to conditions: HT-29, 2000 cells/well, 72 hours, untargeted particles. The experiment is classed as cell-based.
From the text: as §1, §2

[3] abbreviates: MCF-7, 4000 cells/well, 72 hours.

pIC50: −log10 of the molar value.

`[NH2][Pt]([NH2])([Cl])([Cl])([O]C(=O)CCC(=O)O)[O]C(=O)CCC(=O)O` [DSCP, c,c,t-Pt(NH3)2Cl2(O2CCH2CH2CO2H)2] showed a negative-log IC50 (pIC50) in experiment [1] (setting [3]) of 4.95. The “cell death on treatment of HT-29 cells” value in experiment [2] is “did not lead to any appreciable cell death”.

For the molecule cis-Pt(NH3)2Cl2 [cisplatin], the pIC50 is 5.68 in experiment [1] (MCF-7, 2000 cells/well) and 4.97 in experiment [1] (setting [3]).
